Like-named read-outs stand apart in the source and are kept apart here.
Columns and labels:
HBV cccDNA = assay: Chromatin immunoprecipitation (ChIP) in HBV-infected HepG2-hNTCP-C9-PIN4 KD cells; format: cell-based, hepatitis B virus; conditions: 20 μM Juglone or PiB, 30 μM ATRA, 6,7,4′-THIF or KPT6566, 40 μM EGCG, vs solvent
Experimental: Chromatin immunoprecipitation (ChIP) was performed in HBV-infected HepG2-hNTCP-C9 PIN1 or PIN4 KD cells to determine the comparative effects of these parvulins on cccDNA (Figure 11D). The chromatins were prepared and immunoprecipitated with IgG or anti-PIN1, HBc, PIN4, acetylated H3 (anti-AcH3), RNA polymerase-II (anti-RNA Pol-II), and histone H3 antibodies and furthermore analyzed by semiquantitative PCR (GeneAmp PCR 2700, Applied Biosystems; [Bichko et al., 1985]; [Saeed et al., 2019], [2021]; [Piracha et al., 2020]). In contrast to endogenous PIN1, the endogenous PIN4 was recruited to HBV cccDNA. Of note, upon PIN1 KD, the recruitment of HBc protein to the cccDNA remains unchanged.
(A–F) HepG2-hNTCP-C9-PIN4 KD cells were mock-infected (lane 1) or HBV infected (lanes 2–3) and treated with solvent (lane 2), or parvulin inhibitors (A) 20 μM Juglone, (B) 20 μM PiB, (C) 30 μM ATRA, (D) 30 μM 6,7,4′-THIF, (E) 30 μM KPT6566, and (F) 40 μM EGCG. The chromatin solutions and ChIP were performed in HBV-infected HepG2-hNTCP-C9-PIN4 KD cells, as described in the “Material and Methods” section and were subjected to immunoprecipitation with normal rabbit polyclonal IgG, anti-PIN1, anti-PIN4, anti-RNA Pol II, anti-acetyl H3, or anti-H3 antibodies. The immunoprecipitated chromatins were analyzed by PCR. The presented data are representative of three independent experiments.
HBV cccDNA synthesis was examined using the protein-free Hirt cccDNA extraction method. Briefly, HBV-infected PIN1 or PIN4 KD cells at approximately 100% confluency were incubated for 10 days, lysed with 10 mM EDTA and 10 mM Tris–HCl [pH 7.5] containing 0.6% SDS-TE buffer, treated for 16 h by adding 5 M NaCl to the final concentration of 1 M, and precipitated by centrifugation for 30 min at 14,500 × g. The supernatants were subjected to multiple phenol extractions (two times) followed by cccDNA extraction via phenol/chloroform. The supernatant containing cccDNA was precipitated by ethanol and furthermore analyzed by Southern blotting. The HBV cccDNA ChIP was performed using cccDNA-specific primers and analyzed by PCR (GeneAmp 2,700, Applied Biosystems), as described previously ([Bichko et al., 1985]; [Piracha et al., 2018], [2020]; [Saeed et al., 2019], [2021]). From the clinical specimens, HBV cccDNA levels were examined, as described previously ([Zhang et al., 2017]), using 251F 5′-GAC TYG TGG TGG ACT TCT C-3′ and 1190R 5′-TCA GCA AAY ACT YGG CA-3′ set of primers.

[1] = tested on: HBV replication in Huh7, HepAD38, HepG2, and HepG2.2.15 cells; format: cell-based, hepatitis B virus
[2] = 72 h, 20 μM Juglone or PiB, 30 μM ATRA, 6,7,4′-THIF or KPT-6566, 40 μM EGCG, vs solvent

| Compound | recruitments of endogenous PIN4 and HBc onto HBV cccDNA (HBV cccDNA) | HBV RNA levels / HBV transcription (Northern blotting) [1, 2] | HBc expression, core particle synthesis and HBV DNA levels [1, 2] | HBV RNA levels / HBV transcription (Northern blotting) [1] | HBc expression, core particle synthesis and HBV DNA levels [1] |
| --- | --- | --- | --- | --- | --- |
| CC(C)(C)c1ccc(S(=O)(=O)N=C2C=C(SCC(=O)O)C(=O)c3ccccc32)cc1 [KPT6566, 2-[[4-[[[4-(1,1-dimethylethyl)phenyl]sulfonyl]imino]-1,4-dihydro-1-oxo-2-naphthalenyl]thio] acetic acid] | reduced | restricted | restricted |  |  |
| O=c1c(-c2ccc(O)cc2)coc2cc(O)c(O)cc12 [6,7,4′-THIF, 6,7-dihydroxy-3-(4-hydroxyphenyl)-4H-chromen-4-one] | reduced | significantly aborted | significantly aborted |  |  |
| CCOC(=O)CN1C(=O)c2ccc3c4c(ccc(c24)C1=O)C(=O)N(CC(=O)OCC)C3=O [PiB, 1,3,6,8-tetrahydro-1,3,6,8-tetraoxo-benzo [lmn][3,8] phenanthroline-2,7-diacetic acid, 2,7-diethyl ester] | reduced | significantly reduced | notably abrogated |  |  |
| CC1=C(/C=C/C(C)=C/C=C/C(C)=C/C(=O)O)C(C)(C)CCC1 [ATRA, All-trans-retinoic acid] | reduced |  |  | reduced | reduced |
| O=C(O[C@@H]1Cc2c(O)cc(O)cc2O[C@@H]1c1cc(O)c(O)c(O)c1)c1cc(O)c(O)c(O)c1 [EGCG, Epigallocatechin gallate] | reduced | lower levels | reduced significantly |  |  |
| O=C1C=CC(=O)c2c(O)cccc21 [Juglone, 5-hydroxyl-1,4-naphthoquinone] | reduced | significantly decreased | dramatically reduced |  |  |

— article PMC9905731, “PIN1 and PIN4 inhibition via parvulin impeders Juglone, PiB, ATRA, 6,7,4′-THIF, KPT6566, and EGCG thwarted hepatitis B virus replication” (Frontiers in Microbiology, 2023)
